# Measured values: ChEMBL document CHEMBL5154881, “Discovery of First-in-Class TAK1-MKK3 Protein-Protein Interaction (PPI) Inhibitor (R)-STU104 for the Treatment of Ulcerative Colitis through Modulating TNF-α Production” (J Med Chem, 2022)
# Active and inactive are the calls of the source. The calls are words filed in the database; no cut-off is given here.
# Experiments:
# [1] = test system: Mus musculus; test: Antiinflammatory activity against DSS-induced C57BL/6 mouse model of acute ulcerative colitis assessed as inhibition ratio of IL-6 mRNA expression in colon tissue at 1 mg/kg, IG via gavage measured after 7 days by RT-qPCR analysis relative to control; type: functional; design: scale not given: the % may be the effect or the level left; settings: time 7 day
# [2] = MRT (0 to infinity) in 12 hr starved C57 mouse at 5 mg/kg, iv measured for 0.083 to 24 hrs post-dose by LC-MS-MS analysis; type: ADME, organism-based; settings: in vivo, time 0.083-24 hrs
# [3] = test system: Mus musculus; test: Antiinflammatory activity against DSS-induced C57BL/6 mouse model of acute ulcerative colitis assessed as inhibition ratio of IL-23 mRNA expression in colon tissue at 3 mg/kg, IG via gavage measured after 7 days by RT-qPCR analysis relative to control; type: functional; design: scale not given: the % may be the effect or the level left; settings: time 7 day
# [4] = test system: Mus musculus; test: Antiinflammatory activity against IL-10-/- C57BL/6 mouse model of ulcerative colitis assessed as inhibition ratio of IL-1beta mRNA expression in colon tissue at 1 mg/kg, IG via gavage and measured after 8 weeks by RT-qPCR analysis relative to control; type: functional; design: scale not given: the % may be the effect or the level left
# [5] = Toxicity in C57 mouse assessed as lung damage at 50 to 500 mg/kg, po administered daily for 14 days; type: organism-based; settings: in vivo, 336 h, dose 50-500 mg/kg, time 14 day
# [6] = test system: Mus musculus; test: Antiinflammatory activity against DSS-induced C57BL/6 mouse model of acute ulcerative colitis assessed as inhibition ratio of IL-1beta protein expression at 3 mg/kg, IG via gavage measured after 7 days by ELISA relative to control; type: functional; design: scale not given: the % may be the effect or the level left; settings: time 7 day
# [7] = Apparent volume of distribution in 12 hr starved C57 mouse at 30 mg/kg, po measured for 0.083 to 24 hrs post-dose by LC-MS-MS analysis; type: ADME, organism-based; settings: in vivo, time 0.083-24 hrs
# [8] = Apparent clearance during terminal phase in 12 hr starved C57 mouse at 30 mg/kg, po measured for 0.083 to 24 hrs post-dose by LC-MS-MS analysis; type: ADME, organism-based; settings: in vivo, time 0.083-24 hrs
# [9] = test system: Mus musculus; test: Antiinflammatory activity against IL-10-/- C57BL/6 mouse model of ulcerative colitis assessed as inhibition ratio of IL-23 mRNA expression in colon tissue at 10 mg/kg, IG via gavage and measured after 8 weeks by RT-qPCR analysis relative to control; type: functional; design: scale not given: the % may be the effect or the level left
# [10] = Cmax in 12 hr starved C57 mouse at 5 mg/kg, iv measured for 0.083 to 24 hrs post-dose by LC-MS-MS analysis; type: ADME, organism-based; design: time upper 24 hrs, time lower 0.083 hrs, dose 5 mg/kg, route iv; settings: in vivo
# [11] = test system: Mus musculus; test: Antiinflammatory activity against IL-10-/- C57BL/6 mouse model of ulcerative colitis assessed as inhibition ratio of IL-23 protein expression at 3 mg/kg, IG via gavage and measured after 8 weeks by ELISA relative to control; type: functional; design: scale not given: the % may be the effect or the level left
# [12] = Metabolic stability in mouse liver microsomes assessed as intrinsic clearance; type: ADME, Microsome
# [13] = Mutagenicity in Salmonella typhimurium by Ames test; type: toxicity; settings: salmonella enterica subsp. enterica serovar typhimurium
# [14] = test system: Mus musculus; test: Anti-ulcerative colitis activity in IL-10-/- C57BL/6 mouse ulcerative colitis model assessed as animal survival at 3 to 10 mg/kg, IG via gavage for 8 weeks; type: functional, organism-based; settings: dose 3-10 mg/kg
# [15] = test system: Mus musculus; test: Anti-ulcerative colitis activity in DSS-induced C57BL/6 mouse ulcerative colitis model assessed as histopathological score recovery ratio at 1 mg/kg, IG via gavage measured after 7 days by H and E staining method relative to control; type: functional; settings: time 7 day
# [16] = test system: Mus musculus; test: Anti-ulcerative colitis activity in IL-10-/- C57BL/6 mouse model of ulcerative colitis assessed as histopathological score recovery ratio at 3 mg/kg, IG via gavage for 8 weeks relative to control; type: functional
# [17] = test system: Mus musculus; test: Anti-ulcerative colitis activity in IL-10-/- C57BL/6 mouse model of ulcerative colitis assessed as histopathological score recovery ratio at 1 mg/kg, IG via gavage for 8 weeks relative to control; type: functional
# [18] = Bioavailability in 12 hr starved C57 mouse […] measured for 0.083 to 24 hrs post-dose by LC-MS-MS analysis; type: ADME, organism-based; settings: in vivo, time 0.083-24 hrs
# [19] = test system: Mus musculus; test: Anti-ulcerative colitis activity against DSS-induced ulcerative colitis C57BL/6 mouse model assessed as reduction in DAI recovery score ratio at 1 mg/kg, IG via gavage administered for 7 days and measured everyday relative to control; type: functional; design: scale not given: the % may be the effect or the level left; settings: time 7 day
# [20] = test system: Mus musculus; test: Anti-ulcerative colitis activity in IL-10-/- C57BL/6 mouse model of ulcerative colitis assessed as colon length recovery ratio at 1 mg/kg, IG via gavage for 8 weeks relative to control; type: functional
# [21] = Metabolic stability in dog liver microsomes assessed as intrinsic clearance at […] measured upto 60 mins in presence of NADPH by HPLC-MS analysis; type: ADME, Canis lupus familiaris, Microsome; design: dose or concentration left out as unconfirmed; settings: 1 h
# [22] = Metabolic stability in human liver microsomes assessed as intrinsic clearance at […] measured upto 60 mins in presence of NADPH by HPLC-MS analysis; type: ADME, Microsome; design: dose or concentration left out as unconfirmed; settings: 1 h
# [23] = test system: Mus musculus; test: Antiinflammatory activity against IL-10-/- C57BL/6 mouse model of ulcerative colitis assessed as inhibition ratio of IL-6 protein expression at 10 mg/kg, IG via gavage and measured after 8 weeks by ELISA relative to control; type: functional; design: scale not given: the % may be the effect or the level left
# [24] = Half life in 12 hr starved C57 mouse at 5 mg/kg, iv measured for 0.083 to 24 hrs post-dose by LC-MS-MS analysis; type: ADME, organism-based; settings: in vivo, time 0.083-24 hrs
# [25] = n-Octanol/water partition coefficient, logP of the compound incubated for 24 hrs by HPLC analysis; type: physicochemical
# [26] = test system: Mus musculus; test: Anti-ulcerative colitis activity in DSS-induced C57BL/6 mouse ulcerative colitis model assessed as colon length recovery ratio at 1 mg/kg, IG via gavage measured after 7 days relative to control; type: functional; settings: time 7 day
# [27] = test system: Mus musculus; test: Antiinflammatory activity against DSS-induced C57BL/6 mouse model of acute ulcerative colitis assessed as inhibition ratio of TNF-alpha protein expression at 1 mg/kg, IG via gavage measured after 7 days by ELISA relative to control; type: functional; design: scale not given: the % may be the effect or the level left; settings: time 7 day
# [28] = test system: Mus musculus; test: Antiinflammatory activity against IL-10-/- C57BL/6 mouse model of ulcerative colitis assessed as inhibition ratio of IL-6 protein expression at 1 mg/kg, IG via gavage and measured after 8 weeks by ELISA relative to control; type: functional; design: scale not given: the % may be the effect or the level left
# [29] = target: T1, Dual specificity mitogen-activated protein kinase kinase 3 (Homo sapiens, UniProt P46734); test: Binding affinity to CM5 chip immobilized human MKK3 (20 to 347 residues) expressed in Escherichia coli BL21 (DE3) assessed as dissociation constant, Kd by surface plasmon resonance analysis
# T1 sequence (P46734 whole entry): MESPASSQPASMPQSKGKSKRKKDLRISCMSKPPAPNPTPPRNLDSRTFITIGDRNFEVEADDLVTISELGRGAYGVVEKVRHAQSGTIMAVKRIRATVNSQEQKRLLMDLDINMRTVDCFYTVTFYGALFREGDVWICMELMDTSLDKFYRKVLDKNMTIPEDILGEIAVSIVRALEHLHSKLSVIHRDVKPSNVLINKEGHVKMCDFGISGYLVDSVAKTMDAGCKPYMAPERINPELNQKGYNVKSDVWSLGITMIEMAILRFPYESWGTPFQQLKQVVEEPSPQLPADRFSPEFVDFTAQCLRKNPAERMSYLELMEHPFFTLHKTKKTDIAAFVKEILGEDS
structure (smiles),measurement,setting,value
COc1ccc([C@H]2CC(=O)c3cc(OC)cc(OC)c32)cc1,Activity,[1],32.8%
same,MRT inf,[2],7.32 h
same,Activity,[3],89.9%
same,Activity,[4],22.8%
same,Activity,[5],Non-Toxic
same,Activity,[6],60.8%
same,Vz,[7],3.68 L/kg
same,CLz/F,[8],4.83 mL/min/kg
same,Activity,[9],58.2%
same,Cmax,[10],2920 ng/mL
same,Activity,[11],58.2%
same,CLH,[12],1730.2 mL/min/g
same,Activity,[13],Non-Toxic
same,Activity,[14],Active
same,Activity,[15],25%
same,Activity,[16],50.5%
same,Activity,[17],33%
same,bioavailability,[18],33%
same,Activity,[19],20%
same,Activity,[20],17.7%
same,CLH,[21],121.4 mL/min/g
same,CLH,[22],46 mL/min/g
same,Activity,[23],57.6%
same,half-life,[24],9.29 h
same,logP at 24 h,[25],2.01
same,Activity,[26],33.3%
same,Activity,[27],32.9%
same,Activity,[28],31.4%
same,Kd,[29],3.61 10^-3/s
